{
  "source": "patent US20250129113A1",
  "about": "“NEW GLYCOSIDE COMPOUND AND PREPARATION PROCESS THEREOF” (SunIn Biotech Co., Ltd., priority 2023, published 2025)",
  "key": {"[1]": {"system": "IL-6 gene expression in THP1 cells differentiated into M1-type macrophages", "experiment": "Real-time PCR inflammatory gene expression assay, IL-6", "assay_type": "cell-based, human", "conditions": "16 μM; THP1 differentiation into M1-type macrophages (LPS, IFN-γ); 25 mM glucose", "description": "(§1) Human acute monocytic leukemia, THP1 cells were cultured in Roswell Park Memorial Institute (RPMI) 1640 medium added with 10% fetal calf serum, and then the cells were put in a humidified incubator at 37° C., and with an air of 5% carbon dioxide and 95% oxygen.\n(§2) THP1 cells were treated with 100 ng/ml of phorbol 12-myristate 13-acetate (PMA) for 24 hours to induce activation. The following day, the medium was replaced with RPMI 1640 (25 mM Glucose, 10% FBS) and incubated for another 24 hours. The cells were then differentiated into M1 phase macrophages by switching to RPMI 1640 medium containing LPS (10 pg/ml) and IFN-γ (20 ng/ml), and into M2 phase macrophages using RPMI 1640 medium containing IL-4 (20 ng/ml) and IL-13 (20 ng/ml). During the 48-hour differentiation process, the test drug Nusynside (16 μM) was added. After 24 hours of differentiation, mRNA from M1 and M2 phase macrophages was extracted using the PROTECH Kit, and reverse transcription of mRNA into cDNA was performed with the Protech MMLV Reverse Transcription Kit. Gene expression was subsequently observed. According to the POWERTRACK SYBR dye protocol, the cDNA was mixed, and gene expression was analyzed using the StepOnePlus Real-Time PCR Systems to examine inflammatory gene expression when THP1 cells were differentiated into M1 and M2 phase macrophages in the presence of Nusynside (16 μM)."}, "[2]": {"system": "HaCaT cells", "experiment": "Cell proliferation assay (CCK-8), HaCaT cells", "assay_type": "cell-based, human", "conditions": "25 mM glucose, 48 hours, vs control group", "description": "(§3) Human Foreskin Fibroblast, Hs68 cells and human keratinocytes, HaCaT cells were cultured in Dulbecco's Modified Eagle Medium (DMEM) added with glucose and 10% fetal calf serum, and then the cells were put in a humidified incubator with an air of 5% carbon dioxide and 95% oxygen. The medium was changed every two days. The subculture was performed, and then treated with 0.25% trypsin (TRYPSIN-EDTA) mixture. Finally, the cells were collected and diluted at a ratio of 1:5 for re-culture. The cells used in the efficacy test had passage numbers ranging from 12 to 40.\nHaCaT cells at the number of 5×10^3 were cultured Culture in DMEM culture medium for 48 hours. The cell growth and survival status were analyzed with the CCK-8 reagent kit (DOJINDO MOLECULAR TECHNOLOGIES, KUMAMOTO, JAPAN). 10 μL CCK-8 solution was added to each cell culture and the cells were incubated at 37° C. for one hour, and then the cells were measured by the spectrophotometer MICROPLATE READER (THERMO LABSYSTEMS MULTISKAN RC) at 450 nm absorption, and the experimental results were analyzed by a comparison with the control group."}, "[3]": {"system": "TNF-α gene expression in THP1 cells differentiated into M1-type macrophages", "experiment": "Real-time PCR inflammatory gene expression assay, TNF-α", "assay_type": "cell-based, human", "conditions": "16 μM; THP1 differentiation into M1-type macrophages (LPS, IFN-γ); 25 mM glucose", "description": "as §1, §2"}, "[4]": {"system": "Hs68 cells", "experiment": "Cell proliferation assay (CCK-8), Hs68 cells", "assay_type": "cell-based, human", "conditions": "25 mM glucose, 24 hours, vs control group", "description": "as §3\nThe Hs68 cells were cultured in DMEM culture medium for 24 hours. The cell growth and survival status were analyzed with the CCK-8 reagent kit (DOJINDO MOLECULAR TECHNOLOGIES, KUMAMOTO, JAPAN). 10 μL CCK-8 solution to each cell culture was added and the cell culture was incubated at 37° C. for one hour, and then the cells were measured by the spectrophotometer MICROPLATE READER (THERMO LABSYSTEMS MULTISKAN RC) at 450 nm absorption, and the experimental results were analyzed by a comparison with the control group."}, "[5]": {"system": "full-skin wound in BKS.Cg-Dock7m+/+ Leprdb/Jnarl male mice", "experiment": "Diabetic mice wound healing study", "assay_type": "in vivo", "conditions": "Nusynside 0.23 mg, Day 17 after continuous administration, compared to Blank group", "description": "BKS.Cg-Dock7m+/+ Leprdb/Jnarl male mice, an established diabetes model, were obtained from the National Applied Research Laboratories, Taiwan. The experiment was conducted when the mice were 6 to 7 weeks old. A full-skin wound of the same size with a diameter of about 6 mm was made on the left and right sides of each mouse's back.\nTotal 14 mice were randomly divided into 4 groups based on body weight: (i) Nusynside test group (administrated with Nusynside 0.23 mg) (n=4); (ii) Positive Control group (administrated with cream containing Centella Asiatica and Plectranthus amboinicus extract) (n=4); (iii) Vehicle Control group (administrated with ointment base) (n=3); (vi) Blank group (n=3). The animals underwent bilateral incisions and were housed individually in separate cages after the incisions, in the IVC housing system of the general SPF breeding area. Daily external cage observations were conducted by the animal caretakers. On the day of the incision and during follow-up photography, the body weight of the animals, wound appearance, and wound area were measured and recorded, except that the wound had healed resulting in it disable to be measured, the measurements were taken twice a week."}},
  "data": [
    {"smiles": "CC1OC(OC2C(O)C(OCCc3ccc(O)c(O)c3)OC(CO)C2OC(=O)CCc2ccc(O)c(O)c2)C(O)C(O)C1O", "note": "(centres unmarked) [Nusynside]", "values": [
      {"measurement": "expression of IL-6 gene", "setting": "[1]", "result": "significantly downregulated"},
      {"measurement": "promotion of cell proliferation of HaCaT cells", "setting": "[2]; 3.2 μM", "result": 12, "unit": "%"},
      {"measurement": "promotion of cell proliferation of HaCaT cells", "setting": "[2]; 16 μM", "result": 17, "unit": "%"},
      {"measurement": "promotion of cell proliferation of HaCaT cells", "setting": "[2]; 32 μM", "result": 14, "unit": "%"},
      {"measurement": "expression of TNF-α gene", "setting": "[3]", "result": "significantly downregulated"},
      {"measurement": "promotion of cell proliferation of Hs68 cells", "setting": "[4]; 16 μM", "result": 9, "unit": "%"},
      {"measurement": "promotion of cell proliferation of Hs68 cells", "setting": "[4]; 32 μM", "result": 12, "unit": "%"},
      {"measurement": "wound healing rate", "setting": "[5]", "result": "significantly increased the wound healing rate"}
    ]}
  ]
}
